Values after ≈ are worked out from the molar mass of the structure shown. Like-named read-outs stand apart in the source and are kept apart here.
Tests used:
[1] = Rifaximin solubility at different pH, shake flask method; format: physicochemical; settings: for solubility: thermodynamic from solid, shake flask, 20° C.
Procedure: The study was conducted in accordance with accepted principles in order to meet the requirements of the Annex to European Commission Directive 92/69/EEC and the OECD Guidelines for Testing of Chemicals (EEC Method A6, OECD Method 105). […] Aliquots of the saturated solutions of rifaximin-α were adequately diluted, then analyzed by a high performance liquid chromatography (HPLC) method.

Bulk density = format: physicochemical; settings: 10 ml volumetric flask, three samples
[2] = PK study on dogs of rifaximin prepared by spray drying; format: in vivo, dog (beagle); settings: blood
Procedure: Capsules of hard gelatin containing only rifaximin were administered, and the pre- and post-dose observations, the body weight and the physical examination were evaluated.
Blood samples were collected from all animals on each day of dosing at: 0 (pre-dose), 1, 2, 4, 6, 8 and 24 hours after each dosing.

[3] = Stability of rifaximin powder obtained by spray drying on storage; format: physicochemical; settings: for Description / Total impurities / Water content (Karl Fisher) / X-Ray diffraction spectrum: 40° C. ± 2° C., RH 75 ± 5%; for X-Ray diffraction spectrum: complies with an amorphous form of Rifaximin
[4] = Solubility over time of rifaximin preparations in phosphate buffer pH 6.8; format: physicochemical
Procedure: Samples taken at 5-minute intervals during the first hour and at 15-minute intervals in the remaining time, are analysed in HPLC after filtration.

[5] = Particle size dimension (PSD), Beckman-Coulter LS100 Q; format: physicochemical; settings: solvent White Spirit
Procedure: The particle size analysis were performed using Beckman—Coulter LS100 Q particle size analyzer equipped with a micro-volume cell. The solvent used is White Spirit (WS). In Table 4 are reported the average size of the particles obtained with spray drying and milling processes.

[6] = test system: enterotoxogenic Escherichia coli isolates; settings: cited from earlier work
[7] = test system: enteric bacteria pathogens; settings: cited from earlier work

## CO[C@H]1/C=C/O[C@@]2(C)Oc3c(C)c(O)c4c(O)c(c5c(nc6cc(C)ccn65)c4c3C2=O)NC(=O)/C(C)=C\C=C\[C@H](C)[C@H](O)[C@@H](C)[C@@H](O)[C@@H](C)[C@H](OC(C)=O)[C@@H]1C [rifaximin-α, rifaximin]
[1]; aqueous buffer, pH 4 buffer solution
  solubility: 4.12 µg/mL (≈ 5.24 µM)
[1]; aqueous buffer, pH 7 buffer solution
  solubility: 3.22 µg/mL (≈ 4.1 µM)
[1]; aqueous buffer, pH 10 buffer solution
  solubility: 299 µg/mL (≈ 380 µM)
[1]; Purified water, saturated solutions of rifaximin-α
  solubility: 3.63 µg/mL (≈ 4.62 µM)

## CO[C@H]1/C=C/O[C@@]2(C)Oc3c(C)c(O)c4c(O)c(c5c(nc6cc(C)ccn65)c4c3C2=O)NC(=O)/C(C)=C\C=C\[C@H](C)[C@H](O)[C@@H](C)[C@@H](O)[C@@H](C)[C@H](OC(C)=O)[C@@H]1C [Example 1, rifaximin]
Bulk density; listed as rifaximin by spay drying
  bulk density: 0.257 g/mL
[2]; female, beagle, dog, po, 100 mg/kg
  Tmax: 2 h
[2]; female, beagle, dog, po, 100 mg/kg, read-out: AUC0-24 h, mean (±standard error)
  AUC(0-t): 2850 ± 1490 ng·h/mL
[2]; female, beagle, dog, po, 100 mg/kg, read-out: Cmax, mean (±standard error)
  Cmax: 1040 ± 588 ng/mL
[2]; human (calculated), oral, 2.9 mg/kg, calculated from dog values (100 mg/kg, HED 54.4 mg/kg), mean ± standard error, read-out: AUC0-24 h, values calculated in humans proportionally reduced to the dosage 2.9 mg/kg
  AUC(0-t): 143 ± 80.1 ng·h/mL
[2]; human (calculated), oral, 2.9 mg/kg, calculated from dog values (100 mg/kg, HED 54.4 mg/kg), mean ± standard error, read-out: Cmax, values calculated in humans proportionally reduced to the dosage 2.9 mg/kg
  Cmax: 56.1 ± 31.6 ng/mL
[3]; 1 month
  Description: Red-orange
  Total impurities: 0.54%
  Water content (Karl Fisher): 4.9%
  X-Ray diffraction spectrum: Complies with
[3]; 3 months
  Description: Red-orange
  Total impurities: 0.95%
  Water content (Karl Fisher): 5.4%
  X-Ray diffraction spectrum: Complies with
[3]; 40° C.+2, relative humidity 75%, up to three months
  stability of the obtained rifaximin powder: stable
[3]; T0, acceptance Red-orange powder
  Description: Red-orange
[3]; T0, acceptance ≦2.0%
  Total impurities: 0.51%
[3]; T0, acceptance ≦8%
  Water content (Karl Fisher): 2.2%
[3]; T0
  X-Ray diffraction spectrum: Complies with
[3]; after three months, 30° C. to 40° C., humidity degree higher than 50%
  stability of rifaximin in powder form: stable
[4]; 10 min, phosphate buffer pH 6.8, 30±0.5° C., listed as Spray drying
  Solubility over time, Concentration: 30.2 µg/mL (≈ 38.4 µM)
[4]; 15 min, phosphate buffer pH 6.8, 30±0.5° C., listed as Spray drying
  Solubility over time, Concentration: 44.0 µg/mL (≈ 56 µM)
[4]; 20 min, phosphate buffer pH 6.8, 30±0.5° C., listed as Spray drying
  Solubility over time, Concentration: 47.0 µg/mL (≈ 59.8 µM)
[4]; 25 min, phosphate buffer pH 6.8, 30±0.5° C., listed as Spray drying
  Solubility over time, Concentration: 38.0 µg/mL (≈ 48.4 µM)
[4]; 60 min, phosphate buffer pH 6.8, 30±0.5° C., listed as Spray drying
  Solubility over time, Concentration: 11.0 µg/mL (≈ 14 µM)
[4]; 75 min, phosphate buffer pH 6.8, 30±0.5° C., listed as Spray drying
  Solubility over time, Concentration: 9.9 µg/mL (≈ 12.6 µM)
[4]; 90 min, phosphate buffer pH 6.8, 30±0.5° C., listed as Spray drying
  Solubility over time, Concentration: 9.5 µg/mL (≈ 12.1 µM)
[4]; 105 min, phosphate buffer pH 6.8, 30±0.5° C., listed as Spray drying
  Solubility over time, Concentration: 9.3 µg/mL (≈ 11.8 µM)
[4]; 120 min, phosphate buffer pH 6.8, 30±0.5° C., listed as Spray drying
  Solubility over time, Concentration: 9.1 µg/mL (≈ 11.6 µM)
[4]; 135 min, phosphate buffer pH 6.8, 30±0.5° C., listed as Spray drying
  Solubility over time, Concentration: 9.0 µg/mL (≈ 11.5 µM)
[4]; 150 min, phosphate buffer pH 6.8, 30±0.5° C., listed as Spray drying
  Solubility over time, Concentration: 8.8 µg/mL (≈ 11.2 µM)
[4]; phosphate buffer, 30 °C, pH 6.8, aqueous buffer, thermodynamic from solid, 5 min, 500 mg in 750 ml phosphate buffer pH 6.8, 30±0.5° C., 250 rpm, read-out: Solubility over time, Concentration
  solubility at 5 min: 14.4 µg/mL (≈ 18.3 µM)
[4]; phosphate buffer, 30 °C, pH 6.8, aqueous buffer, thermodynamic from solid, 30 min, phosphate buffer pH 6.8, 30±0.5° C., read-out: Solubility over time, Concentration
  solubility at 30 min: 28.7 µg/mL (≈ 36.5 µM)
[4]; phosphate buffer, 30 °C, pH 6.8, aqueous buffer, thermodynamic from solid, 35 min, phosphate buffer pH 6.8, 30±0.5° C., read-out: Solubility over time, Concentration
  solubility at 35 min: 22.4 µg/mL (≈ 28.5 µM)
[4]; phosphate buffer, 30 °C, pH 6.8, aqueous buffer, thermodynamic from solid, 40 min, phosphate buffer pH 6.8, 30±0.5° C., read-out: Solubility over time, Concentration
  solubility at 40 min: 17.7 µg/mL (≈ 22.5 µM)
[4]; phosphate buffer, 30 °C, pH 6.8, aqueous buffer, thermodynamic from solid, 45 min, phosphate buffer pH 6.8, 30±0.5° C., read-out: Solubility over time, Concentration
  solubility at 45 min: 14.9 µg/mL (≈ 19 µM)
[4]; phosphate buffer, 30 °C, pH 6.8, aqueous buffer, thermodynamic from solid, 50 min, phosphate buffer pH 6.8, 30±0.5° C., read-out: Solubility over time, Concentration
  solubility at 50 min: 13.1 µg/mL (≈ 16.7 µM)
[4]; phosphate buffer, 30 °C, pH 6.8, aqueous buffer, thermodynamic from solid, 55 min, phosphate buffer pH 6.8, 30±0.5° C., read-out: Solubility over time, Concentration
  solubility at 55 min: 11.8 µg/mL (≈ 15 µM)
[5]; listed as Spray Drying Process
  Diameter Particle d10: 4.56 μm
  Diameter Particle d50: 19.60 μm
  Diameter Particle d90: 62.21 μm

## CO[C@H]1/C=C/O[C@@]2(C)Oc3c(C)c(O)c4c(O)c(c5c(nc6cc(C)ccn65)c4c3C2=O)NC(=O)/C(C)=C\C=C\[C@H](C)[C@H](O)[C@@H](C)[C@@H](O)[C@@H](C)[C@H](OC(C)=O)[C@@H]1C [rifaximin by milling, rifaximin, reference compound]
Bulk density
  bulk density: 0.327 g/mL
[4]; 5 min, 500 mg in 750 ml phosphate buffer pH 6.8, 30±0.5° C., 250 rpm
  Solubility over time, Concentration: 10.8 µg/mL (≈ 13.7 µM)
[4]; 10 min, phosphate buffer pH 6.8, 30±0.5° C.
  Solubility over time, Concentration: 14.3 µg/mL (≈ 18.2 µM)
[4]; 15 min, phosphate buffer pH 6.8, 30±0.5° C.
  Solubility over time, Concentration: 15.9 µg/mL (≈ 20.2 µM)
[4]; 20 min, phosphate buffer pH 6.8, 30±0.5° C.
  Solubility over time, Concentration: 16.7 µg/mL (≈ 21.2 µM)
[4]; 25 min, phosphate buffer pH 6.8, 30±0.5° C.
  Solubility over time, Concentration: 16.9 µg/mL (≈ 21.5 µM)
[4]; 30 min, phosphate buffer pH 6.8, 30±0.5° C.
  Solubility over time, Concentration: 16.7 µg/mL (≈ 21.2 µM)
[4]; 35 min, phosphate buffer pH 6.8, 30±0.5° C.
  Solubility over time, Concentration: 16.1 µg/mL (≈ 20.5 µM)
[4]; 40 min, phosphate buffer pH 6.8, 30±0.5° C.
  Solubility over time, Concentration: 15.4 µg/mL (≈ 19.6 µM)
[4]; 45 min, phosphate buffer pH 6.8, 30±0.5° C.
  Solubility over time, Concentration: 14.8 µg/mL (≈ 18.8 µM)
[4]; 50 min, phosphate buffer pH 6.8, 30±0.5° C.
  Solubility over time, Concentration: 14.0 µg/mL (≈ 17.8 µM)
[4]; 55 min, phosphate buffer pH 6.8, 30±0.5° C.
  Solubility over time, Concentration: 13.5 µg/mL (≈ 17.2 µM)
[4]; 90 min, phosphate buffer pH 6.8, 30±0.5° C.
  Solubility over time, Concentration: 10.9 µg/mL (≈ 13.9 µM)
[4]; 105 min, phosphate buffer pH 6.8, 30±0.5° C.
  Solubility over time, Concentration: 9.8 µg/mL (≈ 12.5 µM)
[4]; 120 min, phosphate buffer pH 6.8, 30±0.5° C.
  Solubility over time, Concentration: 9.0 µg/mL (≈ 11.5 µM)
[4]; 135 min, phosphate buffer pH 6.8, 30±0.5° C.
  Solubility over time, Concentration: 8.3 µg/mL (≈ 10.6 µM)
[4]; 150 min, phosphate buffer pH 6.8, 30±0.5° C.
  Solubility over time, Concentration: 7.9 µg/mL (≈ 10.1 µM)
[4]; phosphate buffer, 30 °C, pH 6.8, aqueous buffer, thermodynamic from solid, 60 min, phosphate buffer pH 6.8, 30±0.5° C., read-out: Solubility over time, Concentration
  solubility at 60 min: 12.9 µg/mL (≈ 16.4 µM)
[4]; phosphate buffer, 30 °C, pH 6.8, aqueous buffer, thermodynamic from solid, 75 min, phosphate buffer pH 6.8, 30±0.5° C., read-out: Solubility over time, Concentration
  solubility at 75 min: 12.1 µg/mL (≈ 15.4 µM)
[5]; listed as Milling Process
  Diameter Particle d10: 1.84 μm
  Diameter Particle d50: 8.17 μm
  Diameter Particle d90: 12.92 μm

## CO[C@H]1/C=C/O[C@@]2(C)Oc3c(C)c(O)c4c(O)c(c5c(nc6cc(C)ccn65)c4c3C2=O)NC(=O)/C(C)=C\C=C\[C@H](C)[C@H](O)[C@@H](C)[C@@H](O)[C@@H](C)[C@H](OC(C)=O)[C@@H]1C [rifaximin, (2S,16Z,18E,20S,21S,22R,23R,24R,25S,26S,27S,28E)-5,6,21,23,25 pentahydroxy-27-methoxy-2,4,11,16,20,22,24,26-octamethyl-2,7-(epoxypentadeca-(1,11,13)trienimino) benzofuro (4,5-e) pyrido(1,2,-a) benzimi-dazole-1,15(2H)-dione,25-acetate]
[6]; contact maintained only for 8 hours
  virulence of the pathogens: not abolished
[6]; continuous contact for at least 24 hours
  concentration effective in the alteration of the virulence: 8 fold lower than MIC
[1]; pH variation between 5 and 7
  effect of pH variation on solubility: does not affect the solubility
[7]
  sub-inhibitory concentration at which alteration of virulence factor occurs: 32 folds lower than the MIC values

— US9498442B2 (ALFA WASSERMANN S.P.A., priority 2010, dated 2016)
